Reference: patent US20060003924A1, “Sulfation-independent L-selectin or E-selectin ligand (HCELL) and therapeutics thereof” (priority 1994, published 2006)
Entries after “also recorded” stand apart in the source; their conditions may differ. Like-named read-outs stand apart in the source and are kept apart here.

Key:
KG1a cells = assay: Stamper-Woodruff lymphocyte adherence assay on KG1a cytospins (Example 9); assay type: cell-based, human; conditions: for L-selectin ligand Activity of KG1a Cells Following Protease or Phospholipase C Treatment, % Control Binding: enzymatic treatment of cells in suspension before cytocentrifugation
KG1a [1] = assay: Lymphocyte adherence assay on KG1a cytocentrifuge preparations (Examples 2-6); assay type: cell-based, human; conditions: for return of binding activity following desialylation: KG1a after neuraminidase
CD43 = assay: Flow cytometry of sialic acid-dependent L60 epitope of CD43 on KG1a after neuraminidase; assay type: cell-based, human; conditions: KG1a cultured with the agent
LN HEV = assay: Lymphocyte adherence to frozen rat lymph node sections (LN HEV, positive control); assay type: cell-based
Experimental: Lymphocyte Adherence Assay. […] Cytocentrifuge preparations of KG1a or other cell lines were made on a Cytospin 3 Cytocentrifuge (Shandon Lipshaw, Pittsburgh, Pa.). Frozen rat LN sections […] thick were mounted on slides, and lymphocyte binding to LN HEV served as a positive control in all experiments.
Lymphocyte suspensions ([…]) were overlaid onto cytocentrifuge or LN sections in duplicate and placed on a rotating platform (80 rpm) at 4° C. for 30 minutes. Slides were then rinsed in cold PBS to remove non-adherent lymphocytes, fixed in 3% glutaraldehyde, and stained with methyl green-thionin. Slides were examined under the light microscope for adherence of lymphocytes to KG1a or LN HEV.

[2] = tested on: E-selectin ligand activity on KG1a and HL-60 cells; assay: Parallel-plate flow chamber: CHO-E cell rolling on fixed hematopoietic cell monolayers; assay type: cell-based, human; conditions: 2.8 dynes/cm^2, 3.8 dynes/cm^2
KG1a CD44 = target: T1, KG1a CD44 (Homo sapiens, UniProt P16070); assay: CHO-E cell rolling over blotted or spotted KG1a membrane proteins / immunoprecipitated CD44; assay type: cell-based; conditions: 3.8 dynes/cm^2
T1 construct: was immunoprecipitated from KG1a membrane protein (50 μg); endogenous in cells; host or cells: KG1a cells (membrane preparation, Hermes-1 immunoprecipitate)
T1 sequence (P16070 21-361 isoform P16070-12 limits assumed): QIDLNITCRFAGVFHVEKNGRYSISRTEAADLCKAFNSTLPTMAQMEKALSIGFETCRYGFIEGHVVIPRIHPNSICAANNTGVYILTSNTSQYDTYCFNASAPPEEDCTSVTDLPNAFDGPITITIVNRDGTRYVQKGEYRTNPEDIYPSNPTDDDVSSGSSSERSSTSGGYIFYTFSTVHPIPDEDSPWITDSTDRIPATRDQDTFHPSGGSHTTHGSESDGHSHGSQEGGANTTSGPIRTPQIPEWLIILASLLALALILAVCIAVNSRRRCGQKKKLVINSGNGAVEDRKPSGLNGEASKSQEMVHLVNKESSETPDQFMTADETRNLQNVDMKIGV

E-selectin = target: T2, E-selectin (Homo sapiens, UniProt P16581); assay: E-selectin ligand activity of immunoprecipitated proteins (CHO-E cell rolling); assay type: cell-based; conditions: for E-selectin-mediated CHO-E cell rolling on immunoprecipitated protein spotted onto plastic dishes: 3.8 dynes/cm^2
T2 construct: expressed in transfected cells; host or cells: CHO cells (CHO-E)
T2 sequence (P16581 22-610): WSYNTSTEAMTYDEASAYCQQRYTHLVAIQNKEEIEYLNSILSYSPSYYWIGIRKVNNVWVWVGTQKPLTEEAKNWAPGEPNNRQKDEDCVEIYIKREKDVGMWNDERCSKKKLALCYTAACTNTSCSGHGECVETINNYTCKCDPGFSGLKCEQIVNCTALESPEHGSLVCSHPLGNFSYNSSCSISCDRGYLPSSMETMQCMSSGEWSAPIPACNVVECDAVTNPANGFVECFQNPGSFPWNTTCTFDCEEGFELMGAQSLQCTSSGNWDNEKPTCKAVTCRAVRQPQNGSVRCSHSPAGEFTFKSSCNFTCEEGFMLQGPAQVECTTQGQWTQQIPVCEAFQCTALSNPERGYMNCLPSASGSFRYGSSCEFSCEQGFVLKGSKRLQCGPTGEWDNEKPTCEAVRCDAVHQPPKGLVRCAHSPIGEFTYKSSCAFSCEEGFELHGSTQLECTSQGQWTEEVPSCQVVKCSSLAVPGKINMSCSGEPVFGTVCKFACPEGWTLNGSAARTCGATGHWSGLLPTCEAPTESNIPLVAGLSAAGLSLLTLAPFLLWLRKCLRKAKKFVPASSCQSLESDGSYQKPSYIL

KG1a [3] = assay: KG1a cell viability by trypan blue exclusion; assay type: cell-based, human; conditions: KG1a after the treatment
[4] = 24 h culture with inhibitor after 1 h neuraminidase (0.1 U/ml), tunicamycin 15 μg/ml, deoxymannojirimycin 0.4 mg/ml, swainsonine 40 μg/ml
[5] = inhibitor alone, 24 h, tunicamycin 15 μg/ml, deoxymannojirimycin 0.4 mg/ml, swainsonine 40 μg/ml
[6] = 20 hr culture, no neuraminidase pretreatment, tunicamycin 15 ug/ml, cycloheximide 1.25 ug/ml
[7] = after neuraminidase, 24 hr culture with chlorate 10 mM, 20 hr culture with tunicamycin 15 ug/ml or cycloheximide 1.25 ug/ml
[8] = LYMPHOCYTE TREATMENT, 1 mM EDTA, 10 mM mannose-6-P, 10 mg/ml PPME, 5 mg/ml fucoidin, 10 ng/ml PMA
[9] = digestion then culture without inhibitor (neuraminidase 24 hour, bromelain 20 hour)

## Tunicamycin
KG1a cells; [4]
  % Control Adhesion: 1.0 % Control Adhesion
KG1a cells; Stamper-Woodruff assay
  L-selectin ligand (HCELL) activity of KG1a / lymphocyte adherence (result in words): completely prevented ligand re-expression
KG1a cells; [5]
  % Control Adhesion: 96.5 % Control Adhesion
KG1a [1]; [6]
  Lymphocyte Adherence to KG1a, Mean of Binding (% of untreated control): 106.2 % of untreated control
KG1a [1]
  return of binding activity following desialylation: blocked
KG1a [1]; [7]
  Lymphocyte Adherence to KG1a, Mean of Binding (% of untreated control): 0.4 % of untreated control
CD43
  return of the L60 epitope of CD43 after neuraminidase: not inhibited

## C[C@@H]1C[C@@H]([C@H](O)CC2CC(=O)NC(=O)C2)C(=O)[C@@H](C)C1 [Cycloheximide]
KG1a cells; 20 hour culture with cycloheximide 1.25 μg/ml, no neuraminidase or bromelain digestion
  Mean % Control Binding: 91.8 % Control Binding
KG1a cells; after bromelain, 20 hour culture with cycloheximide 1.25 μg/ml
  Mean % Control Binding: 0.6 % Control Binding
KG1a cells; after neuraminidase, 20 hour culture with cycloheximide 1.25 μg/ml
  Mean % Control Binding: 0.5 % Control Binding
KG1a [1]; [6]
  Lymphocyte Adherence to KG1a, Mean of Binding (% of untreated control): 91.8 % of untreated control
KG1a [1]
  return of binding activity following desialylation: blocked
KG1a [1]; [7]
  Lymphocyte Adherence to KG1a, Mean of Binding (% of untreated control): 0.5 % of untreated control

## O=S(=O)(F)Cc1ccccc1 [PMSF]
KG1a [1]
  lymphocyte binding to KG1a (result in words): prevented chymotrypsin effects

## O=C(O)CN(CCN(CC(=O)O)CC(=O)O)CC(=O)O [EDTA]
LN HEV
  lymphocyte binding to LN control sections / LN HEV (result in words): completely inhibited
KG1a cells
  L-selectin ligand (HCELL) activity of KG1a / lymphocyte adherence (result in words): complete elimination
[2]
  E-selectin ligand activity (CHO-E cell rolling) on KG1a and HL-60 cells: completely inhibited; also recorded: no activity
KG1a CD44
  E-selectin ligand activity (CHO-E cell rolling) of KG1a membrane proteins / CD44 after treatment: no evidence of E-selectin-mediated adhesive interactions; also recorded: prevented CHO-E rolling
KG1a [1]
  lymphocyte binding to KG1a (result in words): completely inhibited
KG1a [1]; [8]
  Lymphocyte Adherence to KG1a, Mean of Binding (% of untreated control): 0.3 % of Untreated Control

## Chymotrypsin
LN HEV
  lymphocyte binding to LN control sections / LN HEV (result in words): abrogated binding
KG1a cells; Stamper-Woodruff assay
  L-selectin ligand (HCELL) activity of KG1a / lymphocyte adherence (result in words): completely abrogates
KG1a cells
  L-selectin ligand Activity of KG1a Cells Following Protease or Phospholipase C Treatment, % Control Binding: 6.7 % Control Binding
KG1a [1]
  lymphocyte binding to KG1a (result in words): abrogated binding
KG1a [1]; KG1A TREATMENT
  Lymphocyte Adherence to KG1a, Mean of Binding (% of untreated control): 6.7 % of Untreated Control

## O[C@H]1[C@H]2[C@H](O)CCCN2C[C@H]1O [Swainsonine]
KG1a cells; [4]
  % Control Adhesion: 26.6 % Control Adhesion
KG1a cells; Stamper-Woodruff assay
  L-selectin ligand (HCELL) activity of KG1a / lymphocyte adherence (result in words): markedly diminished
KG1a cells; [5]
  % Control Adhesion: 95.5 % Control Adhesion
CD43
  return of the L60 epitope of CD43 after neuraminidase: not inhibited

## Fucoidin
LN HEV
  lymphocyte binding to LN control sections / LN HEV (result in words): inhibited
KG1a [1]
  lymphocyte binding to KG1a (result in words): inhibited
KG1a [1]; [8]
  Lymphocyte Adherence to KG1a, Mean of Binding (% of untreated control): 1.4 % of Untreated Control

## Bromelain
LN HEV
  lymphocyte binding to LN control sections / LN HEV (result in words): abrogated binding
KG1a cells; Stamper-Woodruff assay
  L-selectin ligand (HCELL) activity of KG1a / lymphocyte adherence (result in words): completely abrogates
KG1a cells; [9]
  Mean % Control Binding: 95.2 % Control Binding
KG1a cells
  L-selectin ligand Activity of KG1a Cells Following Protease or Phospholipase C Treatment, % Control Binding: 3.8 % Control Binding
KG1a cells; t = 0, no culture
  Mean % Control Binding: 3.8 % Control Binding
KG1a [1]
  lymphocyte binding to KG1a (result in words): abrogated binding
KG1a [1]; KG1A TREATMENT
  Lymphocyte Adherence to KG1a, Mean of Binding (% of untreated control): 3.8 % of Untreated Control

## Human Neutrophil Elastase: protease
KG1a cells; Stamper-Woodruff assay
  L-selectin ligand (HCELL) activity of KG1a / lymphocyte adherence (result in words): partially affects activity
KG1a cells
  L-selectin ligand Activity of KG1a Cells Following Protease or Phospholipase C Treatment, % Control Binding: 25.4 % Control Binding

## CC(C)C[C@H](NC(=O)[C@@H](NC(=O)N[C@@H](Cc1ccccc1)C(=O)O)[C@@H]1CCN=C(N)N1)C(=O)N[C@H](C=O)Cc1ccccc1 [chymostatin]
KG1a [1]
  lymphocyte binding to KG1a (result in words): prevented chymotrypsin effects

## OC[C@H]1NC[C@@H](O)[C@@H](O)[C@@H]1O [Deoxymannojirimycin]
KG1a cells; [4]
  % Control Adhesion: 22.5 % Control Adhesion
KG1a cells; Stamper-Woodruff assay
  L-selectin ligand (HCELL) activity of KG1a / lymphocyte adherence (result in words): markedly diminished
KG1a cells; [5]
  % Control Adhesion: 107.5 % Control Adhesion
CD43
  return of the L60 epitope of CD43 after neuraminidase: not inhibited

## KG1a CD44: HECA-452-reactive CD44 glycoform of KG1a, hematopoietic cell E-selectin/L-selectin ligand
E-selectin
  E-selectin-mediated CHO-E cell rolling on immunoprecipitated protein spotted onto plastic dishes: rolling was observed

## Neuraminidase: neuraminidase (sialidase), V. cholerae, Boehringer Mannheim
LN HEV
  lymphocyte binding to LN control sections / LN HEV (result in words): abrogated binding
KG1a cells; Neuraminidase 1 h then 24 h recovery
  % Control Adhesion: 99.3 % Control Adhesion
KG1a cells; Neuraminidase (1 h), 0.1 U/ml
  % Control Adhesion: 1.0 % Control Adhesion
KG1a cells; [9]
  Mean % Control Binding: 101.3 % Control Binding
KG1a cells; t = 0, no culture
  Mean % Control Binding: 0.2 % Control Binding
[2]
  E-selectin ligand activity (CHO-E cell rolling) on KG1a and HL-60 cells: no activity
KG1a CD44
  E-selectin ligand activity (CHO-E cell rolling) of KG1a membrane proteins / CD44 after treatment: markedly ablated CHO-E cell rolling
KG1a [1]
  lymphocyte binding to KG1a (result in words): abrogated binding
KG1a [1]; KG1A TREATMENT
  Lymphocyte Adherence to KG1a, Mean of Binding (% of untreated control): 3.1 % of Untreated Control
KG1a [1]; KG1a treatment, t = 0, no culture
  Lymphocyte Adherence to KG1a, Mean of Binding (% of untreated control): 0.02 % of untreated control
KG1a [1]; neuraminidase then 24 hr culture
  Lymphocyte Adherence to KG1a, Mean of Binding (% of untreated control): 101.3 % of untreated control
KG1a [3]
  Cell viability (trypan blue exclusion): > 99%

## O=C[C@@H](O)[C@@H](O)[C@H](O)[C@H](O)COP(=O)(O)O [Mannose-6-P, D-mannose-6-phosphate]
LN HEV
  lymphocyte binding to LN control sections / LN HEV (result in words): inhibited
KG1a [1]
  lymphocyte binding to KG1a (result in words): inhibited
KG1a [1]; [8]
  Lymphocyte Adherence to KG1a, Mean of Binding (% of untreated control): 5.7 % of Untreated Control

## BMEC CD44: CD44 immunoprecipitated from human bone marrow endothelial cells
E-selectin; human bone marrow endothelial cells, Hermes-1 immunoprecipitate
  E-selectin ligand activity of immunoprecipitated CD44: did not possess any E-selectin ligand activity

B1: KG1a PSGL-1: P-selectin glycoprotein ligand-1 immunoprecipitated (4H10 moAb) from KG1a (protein, UniProt Q14242 42-412, looked up)
P-selectin glycoprotein …: QATEYEYLDYDFLPETEPPEMLRNSTDTTPLTGPGTPESTTVEPAARRSTGLDAGGAVTELTTELANMGNLSTDSAAMEIQTTQPAATEAQTTQPVPTEAQTTPLAATEAQTTRLTATEAQTTPLAATEAQTTPPAATEAQTTQPTGLEAQTTAPAAMEAQTTAPAAMEAQTTPPAAMEAQTTQTTAMEAQTTAPEATEAQTTQPTATEAQTTPLAAMEALSTEPSATEALSMEPTTKRGLFIPFSVSSVTHKGIPMAASNLSVNYPVGAPDHISVKQCLLAILILALVATIFFVCTVVLAVRLSRKGHMYPVRNYSPTEMVCISSLLPDGGEGPSATANGGLSKAKSPGLTPEPREDREGDDLTLHSFLP
modifications: KG1a cell glycoform
notes: P-selectin glycoprotein ligand-1 immunoprecipitated (4H10 moAb) from KG1a
E-selectin
  E-selectin-mediated CHO-E cell rolling on immunoprecipitated protein spotted onto plastic dishes: no binding was observed
E-selectin; lower shear force of 0.6 dynes/cm^2
  CHO-E rolling on immunoprecipitated protein: did occur
